Source: patent US5231091A, “Bis-arylphosphate ester antagonists of platelet activating factor” (priority 1992, dated 1993)
Structures can show the parent of a compound that is named as a salt.

Assays:
[1] = target: T1, PAF receptor (Homo sapiens, UniProt P25105); assay: Inhibition of PAF-induced aggregation in human platelet rich plasma; type: cell-based; settings: PAF challenge 1E-6M, number of experiments in parentheses
T1 construct: Blood from healthy volunteers was collected; endogenous in cells; host or cells: human platelets (healthy volunteers)
Description: (§1) Test compounds were evaluated as PAF receptor antagonists in vitro by measuring inhibition of PAF (platelet activating factor) induced platelet aggregation. Platelet aggregation was measured by a modification of the method described in A. Wissner, et. al., J. Med. Chem., 27, 1174, 1984.
(§2) L-PAF was obtained from Calbiochem. A stock solution of 1-2 E-3M was prepared in 10% ethanol in water or 100% methanol and serial working dilutions were made using phosphate buffered saline (PBS). 1-2 E-3M stock solutions of test compounds were prepared in 100% methanol and serially diluted in PBS. All solutions were made up in plastic tubes, stored on ice and protected from heat and light. Solutions were prepared fresh or frozen at -20° C. and used within 48 hours.
(§3) Incubation mixtures consisted of 400 μl PRP, 50 μl of PBS diluent or test compound and 50 μl of PAF agonist. More specifically, 400 μl of PRP was stabilized in a cuvette for 1-2 minutes at 37° C. in the aggregometer to achieve a stable baseline, then 50 μl of PBS or test compound, was added and incubated for 5 minutes before addition of the challenge concentration of PAF (final concentration of 5E-8M or 1E-7M, as determined from the dose response curve for PAF for that experiment). Aggregation was monitored for 5 minutes. Samples containing test compound or diluent were run simultaneously for comparison. Test compounds were initially evaluated at a screening concentration of 1E-5M.
(§4) The recording equipment consisted of a dual channel Chronolog aggregometer connected to a dual channel 10 MV full scale deflection Omniscribe chart recorder (Houston Instruments). […] The bead suspension was used to set the 0% light transmission mark and clear water was used to set the 100% light transmission mark. These limits defined a full scale deflection. The aggregation traces were analyzed by a digitizing method (C. Kohler and B. Zoltan, J. Pharm. Methods, 12, 113, 1984) with x, y coordinate data stored in a computer file. A suitable program computed parameters of interest such as the magnitude of aggregation.
In some experiments, human PRP was used instead of rabbit PRP. Blood from healthy volunteers was collected in Vacutainers® containing the Na citrate diluent and processed in a manner similar to rabbit blood to obtain the PRP. For these experiments, the challenge concentration of PAF was 1E-6M.

[2] = target: T2, PAF receptor (Oryctolagus cuniculus, UniProt G1TEI7); assay: Inhibition of PAF-induced aggregation in rabbit platelet rich plasma; type: cell-based, rabbit (male New Zealand White); settings: rabbit platelet rich plasma; PAF challenge 5E-8M; number of experiments in parentheses; read-out: IC50 inhibition of PAF-induced aggregation
T2 construct: endogenous in cells; host or cells: rabbit platelets (male New Zealand White)
Description: as §1
Approximately 120-240 ml of blood were collected by cardiac puncture from unanesthetized male New Zealand White rabbits (Whaley's Summit View Farms, Belvedere, N.J.) with the use of 3.2% sodium citrate anticoagulant (1 part of citrate/10 parts of blood). All syringes and pipets were plastic. The blood was gently mixed and immediately centrifuged at 800 rpm for 10-15 minutes at room temperature to recover the platelet rich plasma (PRP). Platelet poor plasma (PPP) was prepared by centrifuging PRP at 2800 rpm for 10 minutes at room temperature.
Dilutions (1:3000) of PRP in Isoton® diluent were made and platelet counts were determined on a Coulter Thrombocounter which was standardized with platelet reference standards (Interscience Platelet Control, Portland, Oreg.). PRP platelet counts were adjusted to approximately 400,000-500,000 platelets/μl by the addition of PPP.
as §2, §3, §4

[3] = tested on: PAF induced skin lesions; assay: Guinea pig vascular permeability (skin lesion) model; type: in vivo, guinea pig (Hartley)
[4] = tested on: endotoxin induced mortality; assay: Endotoxin induced shock and mortality in mice; type: in vivo, mouse (male Balb/c)
Text: The test compounds (PAF antagonists) were also efficacious when administered iv prior to a lethal iv injection of endotoxin (Table IX).

[5] = target: T2, PAF receptor; assay: Inhibition of PAF-induced aggregation in washed rabbit platelets; type: cell-based; settings: PAF challenge 5E-9M, number of experiments in parentheses
Description: as §1, §2
More specifically, […] for 1-2 minutes at 37° C. in the aggregometer to achieve a stable baseline, then 50 μl of PBS or test compound, was added and incubated for 5 minutes before addition of the challenge concentration of PAF (final concentration of 5E-8M or 1E-7M, as determined from the dose response curve for PAF for that experiment). Aggregation was monitored for 5 minutes. Samples containing test compound or diluent were run simultaneously for comparison. Test compounds were initially evaluated at a screening concentration of 1E-5M. […]

[6] = tested on: PAF induced lethality; assay: PAF induced lethality in mice; type: in vivo; settings: corrected for control lethality
Description: PAF given I.V. to mice causes an immediate hypotensive shock leading to death in 1 hour or less. Compounds were given intraperitoneally or P.O. at various times before the PAF challenge. Animals alive after 2 hours were counted and the activity of test compounds expressed as % survival corrected for any control (saline treated) animals which survived the PAF challenge.

[7] = tested on: LPS induced hypotension; assay: Endotoxin (LPS) induced hypotension in rats; type: in vivo, rat (male Wistar); settings: anesthetized rats; 10 ug/kg intraarterially 5 minutes after LPS 15 mg/kg I.V.
Description: Bacterial cell wall lipopolysaccharide from E. coli strain 0111:B4 (Sigma #L-2630) was dissolved in saline at a concentration of 3.75 mg/ml and administered to rats at 15 mg/kg I.V. Test compounds were dissolved in saline at 1 mg/ml, diluted to 10 ug/ml, and injected intraarterially at 1 ml/kg (10 ug/kg). Male wistar strain rats were obtained from Charles River Labs and maintained according to ALAC standards. They were anesthetized with 30 mg/kg pentobarbital ip with supplementation as needed. The throat was opened, the left carotid artery was cannulated with PE-10 tubing and the trachea cannulated with 0.100 O.D. tubing. Ventilation was maintained by a Harvard Apparatus small animal pump at a rate sufficient to nearly abolish spontaneous respiration.

[8] = 10 mg/kg IP 2 hours prior to IP endotoxin
[9] = footnote c: I.P. 4 mg/kg 1 hour before PAF

T1 sequence (P25105 whole entry): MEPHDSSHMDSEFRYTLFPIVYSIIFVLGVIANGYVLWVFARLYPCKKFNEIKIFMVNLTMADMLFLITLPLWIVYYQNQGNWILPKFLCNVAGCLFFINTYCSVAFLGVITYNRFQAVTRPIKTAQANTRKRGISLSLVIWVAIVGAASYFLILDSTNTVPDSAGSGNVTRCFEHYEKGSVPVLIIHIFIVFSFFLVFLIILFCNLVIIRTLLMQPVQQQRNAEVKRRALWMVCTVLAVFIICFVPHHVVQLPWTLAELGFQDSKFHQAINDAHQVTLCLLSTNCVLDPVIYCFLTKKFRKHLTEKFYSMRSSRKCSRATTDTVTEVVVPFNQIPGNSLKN
T2 sequence (G1TEI7 1-342): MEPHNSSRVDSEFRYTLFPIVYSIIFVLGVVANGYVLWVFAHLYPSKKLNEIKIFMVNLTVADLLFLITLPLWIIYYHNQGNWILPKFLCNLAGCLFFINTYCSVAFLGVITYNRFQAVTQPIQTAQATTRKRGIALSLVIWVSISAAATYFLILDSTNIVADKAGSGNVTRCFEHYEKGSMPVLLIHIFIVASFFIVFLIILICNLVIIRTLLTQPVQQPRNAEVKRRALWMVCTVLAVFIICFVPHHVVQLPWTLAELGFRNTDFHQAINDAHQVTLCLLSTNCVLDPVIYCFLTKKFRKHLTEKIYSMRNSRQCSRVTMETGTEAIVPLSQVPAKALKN

`CCCCCCCCCCCCCCCCOc1cccc(OP(=O)([O-])Oc2cccc(C[n+]3ccsc3)c2)c1` [3-[[3-[[[3-(Hexadecyloxy)phenoxy]hydroxyphosphinyl]-oxy]phenyl]methyl]-thiazolium, hydroxide, inner salt] showed an IC50 [1] of 2500 nM and an IC50 [2] of 2130 nM.

With `CCCCCCCCCCCCOc1cc(C(C)(C)C)c(OP(=O)([O-])Oc2cccc(C[n+]3ccsc3)c2)cc1C(C)(C)C` [3-[[3-[[[2,5-Bis(1,1-dimethylethyl)-4-(dodecyloxy)phenoxy]hydroxyphosphinyl]oxy]phenyl]methyl]thiazolium, hydroxide, inner salt] the “PAF induced skin lesions, % of control” value ([3]; footnote d: P.O. 5 mg/kg 4 hours before PAF) was 49%, the IC50 [1] was 1930 nM and the “24 hour survival, treated” value [4, 8] was 4/20. The “24 hour survival, treated” value ([4]; 20 mg/kg IP 2 hours prior to IP endotoxin) was 6/20, the “24 hour survival, treated” value ([4]; 40 mg/kg IP 2 hours prior to IP endotoxin) was 6/20 and the IC50 [5] was 2.12 nM. For the same compound, the “PAF induced lethality, % protection” value [6, 9] was 27%.

`CCCCCCCCCCCCCCCCOc1cccc(OP(=O)([O-])Oc2cccc(C[n+]3ccsc3)c2)c1C` [3-[[3-[[[3-(Hexadecyloxy)-2-methylphenoxy]hydroxyphosphinyl]oxy]phenyl]methyl]-thiazolium, hydroxide, inner salt] gave an IC50 [1] of 119 nM and an IC50 [2] of 2650 nM.

Compound `CCCCCCCCCCCCOc1cc(C(C)(C)C)c(OP(=O)([O-])Oc2cccc(C[n+]3cccc4ccccc43)c2)cc1C(C)(C)C` [1-[[3-[[[2,5-Bis(1,1-dimethylethyl)-4-(dodecyloxy)phenoxy] hydroxyphosphinyl]oxy]phenyl]methyl]quinolinium, hydroxide, inner salt] has an IC50 [1] of 47500 nM and an IC50 [2] of 1360 nM.

With `CCCCCCCCCCCCCCOc1cccc(OP(=O)([O-])Oc2cccc(C[n+]3ccsc3)c2)c1OC` [3-[[3-[[Hydroxy]2-methoxy-3-(tetradecyloxy)phenoxy]-phosphinyl]oxy]phenyl]methyl]-thiazolium, hydroxide inner salt] the “PAF induced skin lesions, % of control” value [3, 9] was 75%, the IC50 [1] was 26400 nM and the “24 hour survival, treated” value [4, 8] was 7/30. The “24 hour survival, treated” value ([4]; 30 mg/kg IP 2 hours prior to IP endotoxin, control 4/50) was 12/50, the “Survival after 24 hrs., treated” value ([4]; Table IX, 10 mg/kg iv prior to iv endotoxin, footnote prints IP, control 0/20) was 4/20 and the IC50 [2] was 7500 nM. The “PAF induced lethality, % protection” value ([6]; I.P. 10 mg/kg) was 12% and the “% reversal of LPS induced hypotension (fall in mean arterial pressure)” value [7] was 89%.
